# From ChEMBL document CHEMBL3108719, “Synthesis and in Vitro Evaluation of a Peptidomimetic Inhibitor Targeting the Src Homology 2 (SH2) Domain of STAT6” (ACS Med Chem Lett, 2014)
# Active and inactive are the calls of the source. The calls are words filed in the database; no cut-off is given here.
# Tests used:
# Format in all cases: cell-based
# [1] = target: T1, Signal transducer and activator of transcription 6 (Homo sapiens) (UniProt P42226); experiment: Inhibition of IL4-stimulated SH2 domain of STAT6 phosphorylation at Tyr641 in human BEAS2B cells at 1 to 10 uM incubated for 2 hrs prior to IL-4 challenge measured after 1 hr by Western blotting analysis
# T1 sequence (whole entry): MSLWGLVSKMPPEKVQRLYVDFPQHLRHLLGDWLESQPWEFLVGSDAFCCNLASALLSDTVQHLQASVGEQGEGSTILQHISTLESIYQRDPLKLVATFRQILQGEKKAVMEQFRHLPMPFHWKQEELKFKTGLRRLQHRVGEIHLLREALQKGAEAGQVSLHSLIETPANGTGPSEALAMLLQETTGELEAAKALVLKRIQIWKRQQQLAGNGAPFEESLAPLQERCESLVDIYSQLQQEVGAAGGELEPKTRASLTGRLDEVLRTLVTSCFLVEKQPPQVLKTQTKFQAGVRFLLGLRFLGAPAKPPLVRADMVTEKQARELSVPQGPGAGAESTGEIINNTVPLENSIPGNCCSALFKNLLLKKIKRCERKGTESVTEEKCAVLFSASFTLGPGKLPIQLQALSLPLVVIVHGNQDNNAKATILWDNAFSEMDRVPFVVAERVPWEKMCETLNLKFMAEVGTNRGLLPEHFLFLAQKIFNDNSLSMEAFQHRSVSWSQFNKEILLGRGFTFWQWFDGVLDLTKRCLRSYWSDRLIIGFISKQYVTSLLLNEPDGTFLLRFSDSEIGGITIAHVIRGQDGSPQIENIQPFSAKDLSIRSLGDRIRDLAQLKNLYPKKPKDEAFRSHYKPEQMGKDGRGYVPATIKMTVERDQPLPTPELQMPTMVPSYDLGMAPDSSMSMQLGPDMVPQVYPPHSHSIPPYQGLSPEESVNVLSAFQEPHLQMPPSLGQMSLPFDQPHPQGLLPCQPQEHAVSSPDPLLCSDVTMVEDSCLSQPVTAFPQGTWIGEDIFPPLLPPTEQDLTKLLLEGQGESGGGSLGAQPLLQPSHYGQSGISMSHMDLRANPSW
# [2] = Cytotoxicity against human BEAS2B cells up to 10 uM after 72 hrs by MTS assay; conditions: beas-2b
# [3] = target: T1, Signal transducer and activator of transcription 6 (Homo sapiens); experiment: Inhibition of IL13-stimulated SH2 domain of STAT6 phosphorylation at Tyr641 in human BEAS2B cells at 1 to 10 uM incubated for 2 hrs prior to IL-13 challenge measured after 1 hr by Western blotting analysis
# [4] = target: T1, Signal transducer and activator of transcription 6 (Homo sapiens); experiment: Inhibition of IL4-stimulated SH2 domain of STAT6 phosphorylation at Tyr641 in human BEAS2B cells at 1 to 10 uM incubated for 2 to 48 hrs prior to IL-4 challenge measured after 1 hr by Western blotting analysis
smiles,measurement,setting,value
CC(C)(C)C(=O)OCOP(=O)(OCOC(=O)C(C)(C)C)C(F)(F)c1ccc(/C=C/C(=O)N[C@H](C(=O)N2CCC[C@H]2C(=O)N(c2ccccc2)c2ccc(I)cc2)C(C)(C)C)cc1,inhibition,[1],Active
same,Activity,[2],Non-toxic
same,inhibition,[3],Active
same,inhibition,[4],Active
